Patent US20060172992A1, “Therapeutic agent for overactive bladder resulting from cerebral infarction” (EISAI CO., LTD., priority 2004, published 2006)
Entries after “also recorded” stand apart in the source; their conditions may differ.

Legend:
[1] = test system: human with overactive bladder caused by cerebrovascular disease; settings: cited from earlier work
[2] = test system: rat with overactive bladder caused by cerebrovascular disease; settings: cited from earlier work
[3] = test system: overactive bladder model rats (cerebral infarction by left middle cerebral artery embolization); test: Bladder pressure measurement after intravenous administration, cerebral infarction rats (CI group)
cerebral infarction rats = test: Bladder pressure measurement after intraventricular administration, cerebral infarction rats; format: in vivo, rat
Experimental: After producing cerebral infarction rats, drug infusion tubes were placed in the lateral ventricles of the rats.
The process was conducted in the same manner as Example 5 except that metal tubes were inserted into lateral ventricles upon producing cerebral infarction rats. […] Feasibility of intraventricular administration was determined after injecting ink into the brain, sacrificing the rats and removing the brains to verify on their faces. […] As vehicle, saline was infused for […]. Experiments of five examples for each concentration were conducted.

[4] = 5×10^−4 mg/kg and 5×10^−5 mg/kg

SMILES	micturition reflex [1]	micturition reflex [2]	micturition contraction pressure [3, 4]	retained urine [3, 4]	micturition contraction pressure ([3]; CI group, 5×10^−1 mg/kg)	bladder capacity, difference from vehicle administration group ([3]; CI group, 5×10^−4 mg/kg and 5×10^−5 mg/kg, hydrochloride)	increase in bladder capacity (percentage of change from control) ([3]; CI group, 5×10^−5 mg/kg) [%]	percentage of change in bladder capacity ([3]; CI group, 5×10^−4 to 5×10^−5 mg/kg (bladder capacity most increased)) [%]	bladder capacity ([3]; CI group, 5×10^−7 to 5×10^−1 mg/kg every 30 minutes, hydrochloride, 1 mg/kg)	micturition contraction pressure, versus vehicle administration group ([3]; CI group, 5×10^−7 to 5×10^−2 mg/kg)	bladder capacity, dose comparison (cerebral infarction rats; cerebral infarction group, 5×10^−5 mg/ml)	increase in bladder capacity (cerebral infarction rats; cerebral infarction rats, 5×10^−5 mg/ml) [%]	bladder capacity, difference from vehicle administration group (cerebral infarction rats; cerebral infarction rats, 5 μl of 5×10^−5 mg/ml and 5×10^−6 mg/ml, hydrochloride)	bladder capacity (cerebral infarction rats; cerebral infarction rats, 5 μl of 5×10^−7 to 5×10^−4 mg/ml, hydrochloride)	micturition contraction pressure (cerebral infarction rats; respective doses, versus vehicle, hydrochloride)
COc1ccc(C(=O)N2CCCC2=O)cc1 [Aniracetam]	suppression of micturition reflex is observed	suppression of micturition reflex is observed													
COc1cc2c(cc1OC)C(=O)C(CC1CCN(Cc3ccccc3)CC1)C2.Cl (stereo not drawn) [donepezil hydrochloride, 1-benzyl-4-[(5,6-dimethoxy-1-indanone)-2-yl]methylpiperidine hydrochloride]			no change	little retained urine	significantly increased	significant difference from the vehicle administration group	52.8	52.8	increased the bladder capacities; also recorded: gradually increased	no significant difference	most increased	95.8	increased with a significant margin	notably increased	No change; also recorded: no significant difference
